Test results reported in BigSolDB 2.1.

COC(=O)C(C)(C)N=NC(C)(C)C(=O)OC
Conditions | solubility (mole fraction)
in THF, 253.85 K | 0.13
in THF, 258.55 K | 0.156
in THF, 260.95 K | 0.175
in THF, 262.85 K | 0.194
in THF, 265.15 K | 0.224
in THF, 268.85 K | 0.263
in THF, 273.65 K | 0.326
in THF, 275.95 K | 0.364
in THF, 278.45 K | 0.404
in THF, 280.65 K | 0.443
in THF, 283.15 K | 0.497
in THF, 285.65 K | 0.561
in THF, 288.05 K | 0.614
in THF, 290.55 K | 0.674
in THF, 293.15 K | 0.75
in acetone, 252.75 K | 0.0841
in acetone, 254.45 K | 0.0922
in acetone, 257.95 K | 0.112
in acetone, 261.25 K | 0.136
in acetone, 264.95 K | 0.171
in acetone, 267.65 K | 0.201
in acetone, 273.55 K | 0.276
in acetone, 275.85 K | 0.308
in acetone, 278.25 K | 0.352
in acetone, 280.55 K | 0.395
in acetone, 283.05 K | 0.454
in acetone, 285.65 K | 0.524
in acetone, 287.95 K | 0.591
in acetone, 290.45 K | 0.657
in acetone, 293.15 K | 0.734
in acetonitrile, 251.75 K | 0.0545
in acetonitrile, 255.15 K | 0.0705
in acetonitrile, 258.65 K | 0.091
in acetonitrile, 262.45 K | 0.113
in acetonitrile, 265.15 K | 0.137
in acetonitrile, 269.15 K | 0.18
in acetonitrile, 273.55 K | 0.238
in acetonitrile, 275.75 K | 0.278
in acetonitrile, 278.15 K | 0.323
in acetonitrile, 280.65 K | 0.369
in acetonitrile, 283.25 K | 0.432
in acetonitrile, 285.55 K | 0.494
in acetonitrile, 287.95 K | 0.557
in acetonitrile, 290.85 K | 0.638
in acetonitrile, 293.15 K | 0.702
in cyclohexane, 281.15 K | 0.147
in cyclohexane, 283.55 K | 0.233
in cyclohexane, 286.05 K | 0.362
in cyclohexane, 288.45 K | 0.471
in cyclohexane, 291.05 K | 0.601
in cyclohexane, 293.15 K | 0.677
in dichloromethane, 252.95 K | 0.268
in dichloromethane, 257.05 K | 0.281
in dichloromethane, 260.55 K | 0.296
in dichloromethane, 264.45 K | 0.321
in dichloromethane, 268.05 K | 0.352
in dichloromethane, 271.05 K | 0.385
in dichloromethane, 274.95 K | 0.413
in dichloromethane, 276.65 K | 0.451
in dichloromethane, 278.85 K | 0.493
in dichloromethane, 281.15 K | 0.513
in dichloromethane, 283.55 K | 0.552
in dichloromethane, 286.15 K | 0.592
in dichloromethane, 288.45 K | 0.627
in dichloromethane, 291.05 K | 0.67
in dichloromethane, 293.15 K | 0.73
in diethyl ether, 254.25 K | 0.0921
in diethyl ether, 257.95 K | 0.104
in diethyl ether, 260.55 K | 0.119
in diethyl ether, 262.45 K | 0.136
in diethyl ether, 266.75 K | 0.177
in diethyl ether, 268.15 K | 0.19
in diethyl ether, 273.55 K | 0.268
in diethyl ether, 275.65 K | 0.298
in diethyl ether, 278.05 K | 0.361
in diethyl ether, 280.55 K | 0.4
in diethyl ether, 282.85 K | 0.46
in diethyl ether, 285.55 K | 0.543
in diethyl ether, 287.95 K | 0.599
in diethyl ether, 290.45 K | 0.667
in diethyl ether, 293.15 K | 0.743
in ethanol, 252.85 K | 0.0094
in ethanol, 256.15 K | 0.011
in ethanol, 258.65 K | 0.0133
in ethanol, 261.85 K | 0.0165
in ethanol, 265.85 K | 0.0255
in ethanol, 268.55 K | 0.0344
in ethanol, 273.25 K | 0.0568
in ethanol, 275.85 K | 0.0726
in ethanol, 278.15 K | 0.094
in ethanol, 280.65 K | 0.123
in ethanol, 283.15 K | 0.17
in ethanol, 285.65 K | 0.238
in ethanol, 288.05 K | 0.329
in ethanol, 291.05 K | 0.481
in ethanol, 293.25 K | 0.625
in ethyl acetate, 252.15 K | 0.107
in ethyl acetate, 255.15 K | 0.114
in ethyl acetate, 257.85 K | 0.134
in ethyl acetate, 260.15 K | 0.146
in ethyl acetate, 263.65 K | 0.185
in ethyl acetate, 269.25 K | 0.246
in ethyl acetate, 273.65 K | 0.308
in ethyl acetate, 276.15 K | 0.342
in ethyl acetate, 278.45 K | 0.389
in ethyl acetate, 280.85 K | 0.433
in ethyl acetate, 283.25 K | 0.492
